Experimental data from PMC6427912 (Journal of medicinal chemistry, 2019).
Where two headings read alike, the source gives them in different places.

Assays:
B. subtilis = B. subtilis growth inhibition assay; format: cell-based, Bacillus subtilis
B. anthracis Sterne = format: cell-based, Bacillus anthracis; details: B. anthracis Sterne growth inhibition
S. aureus = S. aureus growth inhibition assay; format: cell-based, Staphylococcus aureus; details: S. aureus growth inhibition
Mycobacterium smegmatis = test: M. smegmatis growth inhibition assay; format: cell-based
HEK293 cells = test: HEK293 cell growth inhibition assay; format: cell-based, human; details: HEK293 cell growth inhibition ED50, 24 hr incubation

## CC(C)CCCC(C)CCCn1cc[n+](CC(P(=O)([O-])O)P(=O)(O)O)c1 (stereo not shown) [Compound 75, Hydrogen(2-(1-(4,8-dimethylnonyl)-1H-imidazol-3-ium-3-yl)-1-phosphonoethyl) phosphonate]
B. subtilis; 12 hours
  Bs ED50: 1.7 µg/mL
B. subtilis; value in parentheses
  Bs ED50: 4.1 µM
B. anthracis Sterne
  Ba ED50: 1.8 µg/mL
B. anthracis Sterne; value in parentheses
  Ba ED50: 4.4 µM
S. aureus
  Sa ED50: 26 µg/mL
S. aureus; value in parentheses
  Sa ED50: 63 µM
Mycobacterium smegmatis; 48 hours
  Ms ED50: 1.4 µg/mL
Mycobacterium smegmatis; value in parentheses
  Ms ED50: 3.4 µM
HEK293 cells
  HEK 293: 181 µg/mL
HEK293 cells; value in parentheses
  HEK 293: 440 µM

## CC(C)CCCC(C)CCNc1ccc[n+](CC(P(=O)([O-])O)P(=O)(O)O)c1 (stereo not shown) [Compound 78, Hydrogen(2-(3-((3,7-dimethyloctyl)amino)pyridin-1-ium-1-yl)-1-phosphonoethyl) phosphonate]
B. subtilis; 12 hours
  Bs ED50: 2.4 µg/mL
B. subtilis; value in parentheses
  Bs ED50: 5.7 µM
B. anthracis Sterne
  Ba ED50: 0.8 µg/mL
B. anthracis Sterne; value in parentheses
  Ba ED50: 1.9 µM
S. aureus
  Sa ED50: 13 µg/mL
S. aureus; value in parentheses
  Sa ED50: 31 µM
Mycobacterium smegmatis; 48 hours
  Ms ED50: 5.5 µg/mL
Mycobacterium smegmatis; value in parentheses
  Ms ED50: 13 µM
HEK293 cells
  HEK 293: 186 µg/mL
HEK293 cells; value in parentheses
  HEK 293: 440 µM

## CC(C)CCCC(C)CCc1csc(NCC(P(=O)(O)O)P(=O)(O)O)n1 (stereo not shown) [Compound 86, (2-((4-(3,7-Dimethyloctyl)thiazol-2-yl)amino)ethane-1,1-diyl)bis(phosphonic acid)]
B. subtilis; 12 hours
  Bs ED50: 8.3 µg/mL
B. subtilis; value in parentheses
  Bs ED50: 19 µM
B. anthracis Sterne
  Ba ED50: 5.0 µg/mL
B. anthracis Sterne; value in parentheses
  Ba ED50: 12 µM
S. aureus
  Sa ED50: 23 µg/mL
S. aureus; value in parentheses
  Sa ED50: 54 µM
Mycobacterium smegmatis; 48 hours
  Ms ED50: 150 µg/mL
Mycobacterium smegmatis; value in parentheses
  Ms ED50: 350 µM

## CC(C)CCCC(C)CCc1cnc(NCC(P(=O)(O)O)P(=O)(O)O)s1 (stereo not shown) [Compound 88, (2-((5-(3,7-Dimethyloctyl)thiazol-2-yl)amino)ethane-1,1-diyl)bis(phosphonic acid)]
B. subtilis; 12 hours
  Bs ED50: 21 µg/mL
B. subtilis; value in parentheses
  Bs ED50: 49 µM
B. anthracis Sterne
  Ba ED50: 7.4 µg/mL
B. anthracis Sterne; value in parentheses
  Ba ED50: 17 µM
S. aureus
  Sa ED50: 36 µg/mL
S. aureus; value in parentheses
  Sa ED50: 84 µM
Mycobacterium smegmatis; 48 hours
  Ms ED50: 150 µg/mL
Mycobacterium smegmatis; value in parentheses
  Ms ED50: 350 µM

## CC(C)CCCC(C)CCCC(C)CCOc1ccc[n+](CC(P(=O)([O-])O)P(=O)(O)O)c1 (stereo not shown) [Compound 90, Hydrogen(1-phosphono-2-(3-((3,7,11-trimethyldodecyl)oxy)pyridin-1-ium-1-yl)ethyl) phosphonate]
B. subtilis; 12 hours
  Bs ED50: 36 µg/mL
B. subtilis; value in parentheses
  Bs ED50: 73 µM
B. anthracis Sterne
  Ba ED50: 5.0 µg/mL
B. anthracis Sterne; value in parentheses
  Ba ED50: 10 µM
S. aureus
  Sa ED50: 22 µg/mL
S. aureus; value in parentheses
  Sa ED50: 45 µM
Mycobacterium smegmatis; 48 hours
  Ms ED50: 91 µg/mL
Mycobacterium smegmatis; value in parentheses
  Ms ED50: 180 µM

## CC(C)CCOc1ccc[n+](CC(P(=O)([O-])O)P(=O)(O)O)c1 (stereo not shown) [Compound 91, Hydrogen (2-(3-(isopentyloxy)pyridin-1-ium-1-yl)-1-phosphonoethyl)phosphonate]
B. subtilis; 12 hours
  Bs ED50: 41 µg/mL
B. subtilis; value in parentheses
  Bs ED50: 120 µM
B. anthracis Sterne
  Ba ED50: 8.6 µg/mL
B. anthracis Sterne; value in parentheses
  Ba ED50: 24 µM
S. aureus
  Sa ED50: 17 µg/mL
S. aureus; value in parentheses
  Sa ED50: 48 µM
Mycobacterium smegmatis; 48 hours
  Ms ED50: 65 µg/mL
Mycobacterium smegmatis; value in parentheses
  Ms ED50: 180 µM

## CC(C)CCCC(C)CCOc1cccc(NCC(P(=O)(O)O)P(=O)(O)O)n1 (stereo not shown) [Compound 92, (2-((6-((3,7-Dimethyloctyl)oxy)pyridin-2-yl)amino)ethane-1,1-diyl)bis(phosphonic acid)]
B. subtilis; 12 hours
  Bs ED50: 75 µg/mL
B. subtilis; value in parentheses
  Bs ED50: 170 µM
B. anthracis Sterne
  Ba ED50: 4.2 µg/mL
B. anthracis Sterne; value in parentheses
  Ba ED50: 9.6 µM
S. aureus
  Sa ED50: 60 µg/mL
S. aureus; value in parentheses
  Sa ED50: 140 µM
Mycobacterium smegmatis; 48 hours
  Ms ED50: 200 µg/mL
Mycobacterium smegmatis; value in parentheses
  Ms ED50: 460 µM

## O=P(O)(O)C(CNc1nccs1)P(=O)(O)O [Compound 93]
B. subtilis; 12 hours
  Bs ED50: 97 µg/mL
B. subtilis; value in parentheses
  Bs ED50: 340 µM
B. anthracis Sterne
  Ba ED50: 2.3 µg/mL
B. anthracis Sterne; value in parentheses
  Ba ED50: 8.0 µM
S. aureus
  Sa ED50: 230 µg/mL
S. aureus; value in parentheses
  Sa ED50: 800 µM
Mycobacterium smegmatis; 48 hours
  Ms ED50: 290 µg/mL
Mycobacterium smegmatis; value in parentheses
  Ms ED50: 1000 µM

## CC(C)CCCC(C)c1cnc(NCC(P(=O)(O)O)P(=O)(O)O)s1 (stereo not shown) [Compound 94, (2-((5-(6-Methylheptan-2-yl)thiazol-2-yl)amino)ethane-1,1-diyl)bis(phosphonic acid)]
B. subtilis; 12 hours
  Bs ED50: 100 µg/mL
B. subtilis; value in parentheses
  Bs ED50: 250 µM
B. anthracis Sterne
  Ba ED50: 11 µg/mL
B. anthracis Sterne; value in parentheses
  Ba ED50: 28 µM
S. aureus
  Sa ED50: 56 µg/mL
S. aureus; value in parentheses
  Sa ED50: 140 µM
Mycobacterium smegmatis; 48 hours
  Ms ED50: 96 µg/mL
Mycobacterium smegmatis; value in parentheses
  Ms ED50: 240 µM

## CC(C)CCCC(C)CCOc1ccnc(NCC(P(=O)(O)O)P(=O)(O)O)c1 (stereo not shown) [Compound 96, (2-((4-((3,7-Dimethyloctyl)oxy)pyridin-2-yl)amino)ethane-1,1-diyl)bis(phosphonic acid)]
B. subtilis; 12 hours
  Bs ED50: 180 µg/mL
B. subtilis; value in parentheses
  Bs ED50: 420 µM
B. anthracis Sterne
  Ba ED50: 11 µg/mL
B. anthracis Sterne; value in parentheses
  Ba ED50: 26 µM
S. aureus
  Sa ED50: 52 µg/mL
S. aureus; value in parentheses
  Sa ED50: 120 µM
Mycobacterium smegmatis; 48 hours
  Ms ED50: 100 µg/mL
Mycobacterium smegmatis; value in parentheses
  Ms ED50: 240 µM

## CC(C)CCCC(C)CCCC(C)CCCC(C)CCOc1ccc[n+](CC(P(=O)([O-])O)P(=O)(O)O)c1 (stereo not shown) [Compound 97, Hydrogen(1-phosphono-2-(3-((3,7,11,15-tetramethylhexadecyl)oxy)pyridin-1-ium-1-yl)ethyl)phosphonate]
B. subtilis; 12 hours
  Bs ED50: 260 µg/mL
B. subtilis; value in parentheses
  Bs ED50: 460 µM
B. anthracis Sterne
  Ba ED50: 7.7 µg/mL
B. anthracis Sterne; value in parentheses
  Ba ED50: 14 µM
S. aureus
  Sa ED50: 25 µg/mL
S. aureus; value in parentheses
  Sa ED50: 44 µM
Mycobacterium smegmatis; 48 hours
  Ms ED50: 210 µg/mL
Mycobacterium smegmatis; value in parentheses
  Ms ED50: 370 µM

## CC(C)CCCC(C)CCc1ccc[n+](CC(P(=O)([O-])O)P(=O)(O)O)c1 (stereo not shown) [Compound 102, Hydrogen (2-(3-(3,7-dimethyloctyl)pyridin-1-ium-1-yl)-1-phosphonoethyl) phosphonate]
B. subtilis; 12 hours
  Bs ED50: 1.9 µg/mL

## CC(C)=CCC/C(C)=C/Cc1ccc[n+](CC(P(=O)([O-])O)P(=O)(O)O)c1 (stereo not shown) [Compound 103, 3-[(2E)-3,7-dimethylocta-2,6-dien-1-yl]-1-(2-hydrogenphosphonato-2-phosphonoethyl)pyridin-1-ium]
B. subtilis; 12 hours
  Bs ED50: ~ 9.2 μg/mL
